A short description of data set [1]: Dissociation constant, pKa of the compound. Type of data set: physicochemical.
Data set [2] in a line: Lipophilicity, logP of the compound. The note with it: octanol/water.
Data set [3] has as its target Neuronal acetylcholine receptor; alpha6/beta2 (Homo sapiens, UniProt P17787+Q15825). Briefly: Binding affinity to nACh alpha6beta2 receptor (unknown origin) assessed as inhibition constant. Type of data set: protein-complex assay.
A short description of data set [4]: Lipophilicity, logD of compound at pH 7. The note with it: buffer.
The target in data set [5] is Glutamate NMDA receptor; GRIN1/GRIN2A (Homo sapiens, UniProt Q05586+Q12879). Briefly: Binding affinity to GluN1/GluN2A receptor (unknown origin) assessed as inhibition constant. It counts as protein-complex assay.
Chain of Glutamate NMDA receptor; GRIN1/GRIN2A (Q12879 whole entry, other chains not shown): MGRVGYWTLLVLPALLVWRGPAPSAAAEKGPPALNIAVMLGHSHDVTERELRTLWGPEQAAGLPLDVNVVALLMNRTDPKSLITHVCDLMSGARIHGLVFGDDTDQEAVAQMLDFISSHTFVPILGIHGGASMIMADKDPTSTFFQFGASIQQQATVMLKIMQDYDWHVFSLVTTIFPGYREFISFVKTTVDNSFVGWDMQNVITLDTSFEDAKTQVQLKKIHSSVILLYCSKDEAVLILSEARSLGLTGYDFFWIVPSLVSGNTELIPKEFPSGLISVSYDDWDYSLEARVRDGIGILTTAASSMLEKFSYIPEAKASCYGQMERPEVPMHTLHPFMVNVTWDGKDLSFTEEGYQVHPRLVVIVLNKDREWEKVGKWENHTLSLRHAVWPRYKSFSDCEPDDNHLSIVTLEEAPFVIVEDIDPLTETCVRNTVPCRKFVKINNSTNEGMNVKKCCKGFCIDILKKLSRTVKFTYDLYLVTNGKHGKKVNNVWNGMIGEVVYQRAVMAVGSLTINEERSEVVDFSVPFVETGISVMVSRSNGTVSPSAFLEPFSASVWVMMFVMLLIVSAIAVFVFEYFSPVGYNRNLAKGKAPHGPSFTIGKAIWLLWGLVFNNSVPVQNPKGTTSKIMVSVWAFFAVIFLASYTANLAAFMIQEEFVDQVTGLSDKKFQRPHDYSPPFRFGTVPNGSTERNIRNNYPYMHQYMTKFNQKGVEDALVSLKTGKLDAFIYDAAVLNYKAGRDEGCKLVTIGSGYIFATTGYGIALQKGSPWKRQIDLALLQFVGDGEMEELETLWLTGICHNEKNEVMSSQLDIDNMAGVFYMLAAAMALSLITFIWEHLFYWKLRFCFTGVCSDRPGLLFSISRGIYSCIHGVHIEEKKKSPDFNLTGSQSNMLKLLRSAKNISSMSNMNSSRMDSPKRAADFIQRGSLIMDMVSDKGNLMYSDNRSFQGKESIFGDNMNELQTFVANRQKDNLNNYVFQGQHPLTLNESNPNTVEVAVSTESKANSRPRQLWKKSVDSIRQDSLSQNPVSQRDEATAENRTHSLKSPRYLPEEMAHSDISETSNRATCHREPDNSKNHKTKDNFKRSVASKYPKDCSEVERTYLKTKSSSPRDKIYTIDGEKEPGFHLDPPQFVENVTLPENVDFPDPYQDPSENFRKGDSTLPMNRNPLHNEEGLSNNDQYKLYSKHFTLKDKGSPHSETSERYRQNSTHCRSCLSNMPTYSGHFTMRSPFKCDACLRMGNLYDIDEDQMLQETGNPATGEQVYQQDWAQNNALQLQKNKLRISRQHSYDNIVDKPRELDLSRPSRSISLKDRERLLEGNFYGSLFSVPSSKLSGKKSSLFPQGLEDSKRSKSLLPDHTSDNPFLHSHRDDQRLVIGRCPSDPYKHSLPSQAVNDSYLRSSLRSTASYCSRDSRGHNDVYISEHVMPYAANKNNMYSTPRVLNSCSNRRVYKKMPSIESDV
Data set [6] can be described thus: Lipophilicity, logD of compound at pH 7.4. Type of data set: physicochemical. The note with it: buffer.
Data set [7] in a line: Adrenal to liver ratio in rat measured at 60 mins. The note with it: 1 h. Type of data set: ADME, tissue-based.
Data set [8] can be described thus: Selectivity ratio of Ki for kappa opioid receptor (unknown origin) for Ki for mu opioid receptor (unknown origin).
Data set [9] has as its target Kappa-type opioid receptor (Homo sapiens, UniProt P41145). Briefly: Binding affinity to kappa opioid receptor (unknown origin) assessed as inhibition constant.
The nature of data set [10]: Selectivity ratio of Ki for kappa opioid receptor (unknown origin) for Ki for delta opioid receptor (unknown origin).
For data set [11], the target named is T1, Gamma-aminobutyric acid receptor subunit alpha-5 (Homo sapiens, UniProt P31644).
T1 sequence (P31644 whole entry): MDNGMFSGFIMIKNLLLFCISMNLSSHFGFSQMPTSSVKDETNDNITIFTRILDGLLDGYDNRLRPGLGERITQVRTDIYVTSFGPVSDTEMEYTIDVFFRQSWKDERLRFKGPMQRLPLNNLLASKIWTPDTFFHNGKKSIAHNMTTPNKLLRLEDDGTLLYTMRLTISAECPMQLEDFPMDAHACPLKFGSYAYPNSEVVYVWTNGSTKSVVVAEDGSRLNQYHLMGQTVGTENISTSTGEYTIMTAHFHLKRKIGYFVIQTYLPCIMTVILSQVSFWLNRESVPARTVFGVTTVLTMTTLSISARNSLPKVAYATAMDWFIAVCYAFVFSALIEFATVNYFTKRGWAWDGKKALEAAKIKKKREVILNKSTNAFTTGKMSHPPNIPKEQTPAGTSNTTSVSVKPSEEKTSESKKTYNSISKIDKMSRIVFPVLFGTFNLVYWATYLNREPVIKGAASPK
Briefly: Binding affinity to GABAa alpha5 (unknown origin) assessed as inhibition constant.

Data set [12] can be described thus: Drug distribution in rhesus monkey striatum assessed as maximum binding. Type of data set: ADME, tissue-based, Macaca mulatta.
Data set [13] in a line: Drug distribution in rhesus monkey temporal cortex assessed as maximum binding. Type of data set: ADME, tissue-based, Macaca mulatta.
Data set [14] is described as follows: Drug distribution in rhesus monkey temporal cortex assessed as dissociation constant. Type of data set: ADME, tissue-based, Macaca mulatta.
Data set [15] in a line: Half life in rhesus monkey. Type of data set: ADME, Macaca mulatta. As to conditions: in vivo.

The structures appear in SMILES notation.

Chain of Kappa-type opioid receptor (P41145 whole entry): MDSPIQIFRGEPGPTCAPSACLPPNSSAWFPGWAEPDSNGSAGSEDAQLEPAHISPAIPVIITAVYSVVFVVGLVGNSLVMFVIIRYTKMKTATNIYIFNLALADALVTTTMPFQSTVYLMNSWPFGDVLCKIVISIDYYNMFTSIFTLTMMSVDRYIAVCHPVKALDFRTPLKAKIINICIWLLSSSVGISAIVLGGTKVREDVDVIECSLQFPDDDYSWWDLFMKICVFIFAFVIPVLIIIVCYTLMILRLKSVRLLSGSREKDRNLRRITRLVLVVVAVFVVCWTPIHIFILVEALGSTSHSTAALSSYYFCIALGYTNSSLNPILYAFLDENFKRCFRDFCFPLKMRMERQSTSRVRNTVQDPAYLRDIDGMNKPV
Chain of Neuronal acetylcholine receptor; alpha6/beta2 (P17787 whole entry): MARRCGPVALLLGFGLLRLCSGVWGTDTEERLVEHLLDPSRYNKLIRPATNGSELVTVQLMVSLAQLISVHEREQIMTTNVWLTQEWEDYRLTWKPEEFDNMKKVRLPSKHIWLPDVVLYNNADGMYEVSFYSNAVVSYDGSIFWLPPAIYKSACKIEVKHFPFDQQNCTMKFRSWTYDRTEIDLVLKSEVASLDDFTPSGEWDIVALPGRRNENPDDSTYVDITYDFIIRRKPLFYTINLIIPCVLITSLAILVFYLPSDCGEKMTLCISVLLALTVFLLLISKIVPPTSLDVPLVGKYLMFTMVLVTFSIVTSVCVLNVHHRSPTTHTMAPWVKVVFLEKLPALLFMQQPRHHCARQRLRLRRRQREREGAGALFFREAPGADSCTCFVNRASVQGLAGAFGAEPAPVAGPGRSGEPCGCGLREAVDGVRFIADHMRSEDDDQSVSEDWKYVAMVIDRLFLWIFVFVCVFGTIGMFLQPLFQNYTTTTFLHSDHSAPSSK
Chain of Neuronal acetylcholine receptor; alpha6/beta2 (Q15825 whole entry): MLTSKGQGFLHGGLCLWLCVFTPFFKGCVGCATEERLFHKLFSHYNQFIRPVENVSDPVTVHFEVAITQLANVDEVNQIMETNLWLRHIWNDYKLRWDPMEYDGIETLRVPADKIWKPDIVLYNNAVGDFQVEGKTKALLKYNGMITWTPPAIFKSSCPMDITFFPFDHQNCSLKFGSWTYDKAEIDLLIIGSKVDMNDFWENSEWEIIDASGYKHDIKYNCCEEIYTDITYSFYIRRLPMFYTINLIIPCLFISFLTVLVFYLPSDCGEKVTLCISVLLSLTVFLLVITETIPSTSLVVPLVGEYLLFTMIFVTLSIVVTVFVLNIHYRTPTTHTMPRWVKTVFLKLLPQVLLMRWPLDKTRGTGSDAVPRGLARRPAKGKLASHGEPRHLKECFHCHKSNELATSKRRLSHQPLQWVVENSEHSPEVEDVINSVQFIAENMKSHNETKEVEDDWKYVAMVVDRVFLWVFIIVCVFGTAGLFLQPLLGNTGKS

The pKa is the pH at which an ionisable group is half protonated. The term logP denotes the decadic logarithm of the partition coefficient of the neutral form, usually between octanol and water. In turn, `CCOC(=O)c1ncn2c1CN([11CH3])C(=O)c1cc(F)ccc1-2` came in with a pKa in [1] of 0.86. Besides, the logP in [2] is recorded as 1.11.

The Ki is a dissociation constant, usually derived from enzyme kinetics or from competition with a known ligand. Usually logD stands for lipophilicity at a set pH, counting ionised and neutral species. Consider `[18F]CCCc1cncc(OC[C@@H]2C=CCN2)c1`, for which the pKa in data set [1] came to 8.21. Besides, the Ki in data set [3] stood at 0.36 nM. In data set [4], the logD came out at 0.71. In addition, in [2], the logP stood at 1.42.

Consider `FC(F)([18F])C(Cl)Br` (centres undefined), for which the logD in data set [4] is 2.33. In data set [2], this compound came in with a logP of 2.28.

In data set [1], `[11CH3]C(=O)c1ccc2c(c1)CCN(CCCCc1ccccc1)CC2O` (centres undefined) had a pKa of 8.78. In data set [4], the logD is 2.94. Also, in data set [2], the logP worked out at 4.14.

`[11CH3]Oc1cccc(-c2c(O)c3c(I)cc(Cl)cc3[nH]c2=O)c1`: the pKa in [1] was found to be 8.83. Further, the logD in [4] is 1.91. Also, the logP in [2] was 3.81. Also, in [5], the Ki was 10300 nM.

With `[18F]c1ccc2cnn(N=C3NCCN3)c2c1`, in [1], the pKa is 7.94. This compound gave a logD in data set [4] of 0.09. Besides, the logP in data set [2] is 1.11.

For the compound `[11CH3]OC(=O)c1cncn1Cc1ccccc1`, in data set [1], the pKa is 4.08. For the same compound, in data set [4], the logD was 2.19. For the same compound, the logP in data set [2] is recorded as 1.18.

In the case of `COc1cnc(OCc2cn(-c3ccc([18F])c(C)c3)nn2)nc1`, the pKa in data set [1] worked out at 0.73. This compound gave a logD in data set [4] of 1.55. For the same compound, in data set [2], the lipophilicity (logP) is 2.76.

Consider `[18F]CCCc1cncc(OC[C@@H]2CCN2)c1`, for which the pKa in data set [1] was 9.09. Moreover, in data set [3], the Ki is 0.67 nM. Further, in data set [4], the logD was -1.44. Also, the logP in data set [2] amounted to 0.86.

Compound `NC(=O)c1ccc(Oc2ccc(CN3CCC[C@H]3c3cccnc3)cc2)c([18F])c1` came in with a pKa in data set [1] of 8.45. The compound also had a logD in [4] of 2.07. The same compound gave a log partition coefficient (logP) in data set [2] of 3.27.

In the case of `Oc1ccc2c(c1)CCN(CCCCc1ccccc1[18F])C[C@@H]2O`, in [1], the pKa turned out to be 8.68. In addition, the logD worked out at 2.07 in [4] and 2.2 in data set [6]. In addition, the logP in [2] worked out at 4.03.

In data set [1], `CN1C2CCCC1C(c1cncc(-c3cccc([18F])n3)c1)C2` (centres undefined) gave a pKa of 9.24. In addition, in data set [3], the Ki is 0.95 nM. In addition, the logP in data set [2] is 2.89.

In the case of `N[C@H](C[C@H]1CC(C(=O)O)=NN1c1ccc(CCCF)cc1)C(=O)O`, the Ki in data set [5] worked out at 52 nM.

Regarding `FCOC(C(F)(F)F)C(F)(F)[18F]` (centres undefined), in data set [4], the logD was 2.5. This compound displayed a log partition coefficient (logP) in data set [2] of 2.24.

For the compound `CC(=O)N(Cc1ccccc1OCC[18F])c1ccccc1Oc1ccccc1`, the log partition coefficient (logP) in data set [2] amounted to 4.51.

`FC(F)OC(F)C(F)(F)F` (centres undefined) showed a log distribution coefficient (logD) in [4] of 1.88. Besides, the logP in data set [2] was determined as 2.16.

In data set [1], `CN([11CH3])Cc1ccccc1Sc1ccc(C#N)cc1N` came in with a pKa of 9.43. In data set [4], this compound came in with a log distribution coefficient (logD) of 0.89. Besides, the logP in data set [2] was 3.31.

For `CCN(CCF)C[C@@H]1CN(C(=O)CO[11CH3])CCN1C(=O)Cc1ccc(C)c(C)c1`, the pKa in [1] is 7.51. In data set [2], the logP came out at 1.53.

`Cc1cn([C@H]2C[C@H]([18F])[C@@H](CO)O2)c(=O)[nH]c1=O` [ALOVUDINE F-18] had a pKa in data set [1] of 13.7. In data set [4], this compound came in with a logD of -0.2. Further, the logP in data set [2] is -0.41.

In turn, `CN1C2CCCC1C(c1cncc(-c3cccnc3[18F])c1)C2` (centres undefined) showed a pKa in data set [1] of 9.18. The Ki in [3] amounted to 0.06 nM. In [2], this compound registered a logP of 2.47.

Take `C[C@H](c1ccccc1)n1cncc1C(=O)OCC[18F]`: the Ratio in data set [7] was 14.48. Further, in data set [1], the pKa turned out to be 3.83. Also, the logD in data set [4] came to 2.99. Also, the logP in [2] stood at 1.69.

Take `C[11CH2]OC(=O)c1cncn1[C@H](C)c1ccccc1`: the pKa in data set [1] was 4.23. Further, the pH-dependent lipophilicity (logD) in [4] worked out at 3.05. Further, in data set [2], the logP came out at 1.83.

On to `CCN(CCF)C[C@@H]1CN(C(=O)COC)CCN1C(=O)Cc1ccc(C)c(C)c1`, for which the Ratio Ki in data set [8] was found to be 17; in [10] it was 323. Moreover, the Ki in [9] was 0.43 nM.

For `CC(C)C[C@H](N)[11C](=O)O`, in [1], the pKa came out at 10.2. In addition, in [4], the logD is -1.7. Also, the log partition coefficient (logP) in data set [2] was -0.29.

Consider `O=S1(=O)c2cc(N3CCN4CCC3CC4)ccc2-c2cccc([18F])c21`, for which, in data set [1], the pKa was determined as 8.68. For the same compound, in data set [4], the logD came out at 1.72. The lipophilicity (logP) in data set [2] is 2.71.

In the case of `CCOC(=O)c1ncn2c1CN(C)C(=O)c1cc([18F])ccc1-2`, in data set [1], the pKa is 0.86. The logP in data set [2] is on record as 1.11.

`CN(C)c1cccc2c(S(=O)(=O)N/N=C/c3ccc([18F])cc3)cccc12` yielded a logD in data set [4] of 3.92. In [2], this compound returned a logP of 4.94.

For the compound `CCOC(=O)c1ncn2c1CN([11CH3])C(=O)c1cc(N=[N+]=[N-])ccc1-2`, the Ki in data set [11] was around 0.5 nM. In data set [1], this compound gave a pKa of 8.45.

For `[11CH3]OCc1scnc1N1CCN(C[C@H]2COc3ccccc3O2)CC1`, in data set [1], the pKa was determined as 7.21. This compound also yielded a logD in data set [4] of 2.02. The compound further had a logP in data set [2] of 2.65.

In turn, `[18F]c1ccc(C2CC3CCCC2N3)cn1` (single isomer, unassigned; (-)) registered a pKa in data set [1] of 9.28. The compound also gave a logD in data set [4] of -0.76. The compound further returned a logP in [2] of 1.75.

Turning to `C[C@@H](C[11CH3])CCc1cnc(Cl)c(/C=C/c2ccncc2)c1`, the Ki in data set [3] was 0.077 nM. Besides, the logP in [2] amounted to 4.94.

`[11CH3]n1c2c(c3ccccc31)C[C@@]1(O)[C@H]3Cc4ccc(O)c5c4[C@@]1(CCN3CC1CC1)[C@H]2O5` gave a pKa in [1] of 14.2. The compound also had a logP in data set [2] of 3.31.

As for `[18F]c1ncccc1OC[C@H]1CCN1`, in data set [1], the pKa amounted to 8.95.

A word on the Kd: it is a measure of binding affinity in units of concentration. As usually defined, the half-life is the time in which the quantity being followed falls by half. Take `CN([11CH3])[C@]1(c2ccccc2Cl)CCCCC1=O`: the results for the equilibrium dissociation constant (Kd) in data set [12], in [13] and in data set [14] were 14000 nM, 4000 nM and 7000 nM, respectively. Besides, in [1], the pKa came out at 6.92. Further, in data set [15], the half-life was above 15 min. For the same compound, the pH-dependent lipophilicity (logD) in [4] amounted to 2.93. The compound further registered a logP in data set [2] of 2.84.

`CCCc1cc(Cl)cc2[nH]c(=O)c(-c3cccc(O[11CH3])c3)c(O)c12` had a pKa in data set [1] of 9.06. In [2], the logP is 3.78. Further, the Ki in data set [5] stood at 7200 nM.

In data set [1], `CN1CC=C[C@H]1COc1cccnc1[18F]` had a pKa of 8.09. In addition, in data set [3], the inhibition constant Ki amounted to 0.5 nM. The compound also returned a log distribution coefficient (logD) in data set [4] of 0.3. The logP in data set [2] amounted to 1.21.

With `CCN(CC)C[C@@H]1CN(C(=O)CO[11CH3])CCN1C(=O)Cc1ccc(C)c(C)c1`, the Ki in [9] is 0.28 nM. For the same compound, the pKa in [1] turned out to be 8.6. The compound further showed a logP in [2] of 1.67.

`N#Cc1cc([18F])cc(C#Cc2ccccn2)c1` gave a pKa in data set [1] of 1.89. In data set [4], this compound showed a logD of 3.38. In addition, in data set [2], the logP was determined as 3.25.

Regarding `CCN(CC)C[C@@H]1CN(C(=O)COC)CCN1C(=O)Cc1ccc(C)c(C)c1`, the Ki in data set [9] was 0.28 nM.

For `C[C@H](c1ccc(Cl)cc1)n1cncc1C(=O)OCC[18F]`, in [1], the pKa is 3.76. Moreover, the log distribution coefficient (logD) in data set [4] amounted to 3.76. The logP in [2] is 2.25.

`CC(OC(F)F)C(F)(F)F` (centres undefined): in data set [4], the logD came out at 2.12. In addition, the logP in [2] turned out to be 2.47.
